1 compound from paper PMC6171243, “Suppression of lung cancer progression by isoliquiritigenin through its metabolite 2, 4, 2’, 4’-Tetrahydroxychalcone” (Journal of Experimental & Clinical Cancer Research : CR, 2018) can be followed below.

Broadly, the pIC50 is the IC50 on a negative log10 scale, so that one unit is a factor of ten. Low values mean a high IC50, high ones a low IC50.

The assay deals with Src (Homo sapiens, UniProt P12931). In words: cell-free ADP-Glo Src kinase assay (Promega). The assay is classed as biochemical. For orientation: ADP-Glo first removes unused ATP, then detects ADP through luciferase.

pIC50: −log10 of the molar value.

Src, sequence (P12931 2-536): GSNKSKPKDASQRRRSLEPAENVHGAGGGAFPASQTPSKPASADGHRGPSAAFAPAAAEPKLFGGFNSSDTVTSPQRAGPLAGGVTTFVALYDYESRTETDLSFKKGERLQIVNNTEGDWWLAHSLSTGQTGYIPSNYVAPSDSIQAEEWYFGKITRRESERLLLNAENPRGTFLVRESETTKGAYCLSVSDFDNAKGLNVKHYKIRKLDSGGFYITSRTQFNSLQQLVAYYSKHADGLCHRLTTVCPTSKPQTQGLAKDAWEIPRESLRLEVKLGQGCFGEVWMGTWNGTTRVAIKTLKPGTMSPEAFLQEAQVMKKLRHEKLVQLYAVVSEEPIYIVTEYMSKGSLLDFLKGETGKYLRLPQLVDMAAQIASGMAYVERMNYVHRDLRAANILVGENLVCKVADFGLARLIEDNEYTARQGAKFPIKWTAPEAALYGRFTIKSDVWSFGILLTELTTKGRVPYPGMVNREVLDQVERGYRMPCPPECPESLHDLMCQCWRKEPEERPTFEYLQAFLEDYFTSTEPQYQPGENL

As for `O=C(/C=C/c1ccc(O)cc1O)c1ccc(O)cc1O` [THC, 2,4, 2′, 4′-tetrahydroxychalcone], the pIC50 is 5.84.
